For the assay, the target named is Cezanne 1 (Homo sapiens (Human), UniProt Q6GQQ9). The assay can be described thus: Cezanne 1 biochemical IC50 assay (fluorescence polarisation, TAMRA labelled peptide linked to ubiquitin). The conditions noted are these: Cezanne 1 biochemical IC50 assay; 30 min pre-incubation, read after 2 hr at room temperature; read-out: IC50 range. On the procedure: The Cezanne 1 construct was PCR amplified and cloned into a pFLAG-CMV-6c vector (Sigma-Aldrich) with an N-terminal FLAG tag. HEK293T cells were transfected with FLAG-Cezanne 1 using TransIT-LT1 transfection reagent (Mirus) according to the manufacturer's instructions. Cells were harvested 48 hours after transfection. […] The resin was washed two times with low salt buffer and one time with high salt buffer (20 mM Tris, pH 7.5, 500 mM NaCl, 0.5 mM EDTA, 5 mM beta-mercaptoethanol, protease inhibitors (complete mini, Roche) and phosphatase inhibitors (PhosSTOP mini, Roche). To elute the bound Cezanne 1, elution buffer (10 mM Tris, pH 7.5, 150 mM NaCl, 0.5 mM EDTA, 10% glycerol, 0.5% NP40, 5 mM beta-mercaptoethanol, 0.15 mg/ml 3× FLAG peptide (Sigma-Aldrich)) was added to the resin and incubated at 4° C. for 2.5 hours while rotating. The resin was centrifuged at 4000 rpm for 30 seconds, and the supernatant containing purified FLAG-Cezanne 1 was removed and stored at −80° C. […] Dilution plates were prepared at 21 times the final concentration (2100 μM for a final concentration of 100 μM) in 50% DMSO in a 96-well polypropylene V-bottom plate (Greiner #651201). […] Reactions were performed in duplicate in black 384 well plates (small volume, Greiner 784076) in a final reaction volume of 21 μl. Either 1 μl of 50% DMSO or diluted compound was added to the plate. Cezanne 1 was diluted in reaction buffer (40 mM Tris, pH 7.5, 0.005% Tween 20, 0.5 mg/ml BSA, 5 mM—beta-mercaptoethanol) to the equivalent of 0.005 μl/well and 10 μl of diluted Cezanne 1 was added to the compound. Enzyme and compound were incubated for 30 min at room temp. Reactions were initiated by the addition of 50 nM of TAMRA labelled peptide linked to ubiquitin via an iso-peptide bond as fluorescence polarisation substrate. Reactions were read immediately after addition of substrate and following a 2 hr incubation at room temperature. Readings were performed on a Pherastar Plus (BMG Labtech). λ Excitation 540 nm; λ Emission 590 nm.
For orientation: Fluorescence polarisation rises when a labelled molecule tumbles more slowly, as on binding a larger partner.

These results are taken from US10654853B2, “Spiro-condensed pyrrolidine derivatives as deubiquitylating enzymes (DUB) inhibitors” (MISSION THERAPEUTICS LIMITED, priority 2016, dated 2020).

Some results are limits rather than exact numbers.

Chain of Cezanne 1 (Q6GQQ9 whole entry): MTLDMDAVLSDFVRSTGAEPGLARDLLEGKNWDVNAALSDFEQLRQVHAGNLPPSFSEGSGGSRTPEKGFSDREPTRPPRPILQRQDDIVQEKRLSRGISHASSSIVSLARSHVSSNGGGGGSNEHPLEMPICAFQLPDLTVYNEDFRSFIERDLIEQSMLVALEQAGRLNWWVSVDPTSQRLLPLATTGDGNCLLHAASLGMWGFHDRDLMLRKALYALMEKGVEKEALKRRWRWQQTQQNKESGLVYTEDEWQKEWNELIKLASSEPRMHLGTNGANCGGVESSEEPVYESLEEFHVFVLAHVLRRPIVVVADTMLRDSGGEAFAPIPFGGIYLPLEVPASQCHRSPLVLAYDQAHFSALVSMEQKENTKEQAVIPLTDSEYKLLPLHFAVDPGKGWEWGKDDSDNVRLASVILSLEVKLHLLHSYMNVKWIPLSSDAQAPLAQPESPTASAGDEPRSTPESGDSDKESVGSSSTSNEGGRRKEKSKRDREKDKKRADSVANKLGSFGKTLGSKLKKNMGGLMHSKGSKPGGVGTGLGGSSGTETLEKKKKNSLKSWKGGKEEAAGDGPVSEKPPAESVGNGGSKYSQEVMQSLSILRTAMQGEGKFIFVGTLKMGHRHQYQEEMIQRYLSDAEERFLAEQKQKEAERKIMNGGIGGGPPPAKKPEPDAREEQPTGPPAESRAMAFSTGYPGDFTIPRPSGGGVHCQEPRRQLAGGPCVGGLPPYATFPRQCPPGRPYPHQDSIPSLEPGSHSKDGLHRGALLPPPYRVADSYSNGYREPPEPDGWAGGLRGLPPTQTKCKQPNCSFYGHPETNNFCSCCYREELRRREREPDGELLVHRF

By IC50 is commonly meant the concentration needed to halve the response being measured. Regarding `Cc1n[nH]c(C)c1-c1ccc2c(c1)NC(=O)C1(CCN(C#N)C1)C2` (stereo not drawn) [Example 33, 7′-(3,5-Dimethyl-1H-pyrazol-4-yl)-2′-oxo-1′,4′-dihydro-2′H-spiro[pyrrolidine-3,3′-quinoline]-1-carbonitrile], the IC50 was in the range of 1000 to 10000 nM.
The figure for `Cc1cc(-c2ccc3c(c2)NC(=O)C2(CCN(C#N)C2)C3)ccn1` (stereo not drawn) [Example 34, 7′-(2-Methylpyridin-4-yl)-2′-oxo-1′,4′-dihydro-2′H-spiro[pyrrolidine-3,3′-quinoline]-1-carbonitrile] is 1000 to 10000 nM; for `N#CN1CCC2(Cc3ccc(-c4cccc(N5CCCCC5)c4)cc3NC2=O)C1` (stereo not drawn) [Example 35, 2′-Oxo-7′-(3-(piperidin-1-yl)phenyl)-1′,4′-dihydro-2′H-spiro[pyrrolidine-3,3′-quinoline]-1-carbonitrile] it is 1000 to 10000 nM.
On to `CC(=O)Nc1ccccc1-c1ccc2c(c1)NC(=O)C1(CCN(C#N)C1)C2` (stereo not drawn) [Example 36, N-(2-(1-Cyano-2′-oxo-1′,4′-dihydro-2′H-spiro[pyrrolidine-3,3′-quinolin]-7′-yl)phenyl)acetamide], for which the IC50 lay in the range of 100 to 1000 nM.
The figure for `N#CN1CCC2(Cc3ccc(-c4ccc(C(=O)N5CCOCC5)cc4)cc3NC2=O)C1` (stereo not drawn) [Example 37, 7′-(4-(Morpholine-4-carbonyl)phenyl)-2′-oxo-1′,4′-dihydro-2′H-spiro[pyrrolidine-3,3′-quinoline]-1-carbonitrile] is 1000 to 10000 nM.
For `N#CN1CCC2(Cc3ccc(-c4cccc(S(=O)(=O)N5CCOCC5)c4)cc3NC2=O)C1` (stereo not drawn) [Example 38, 7′-(3-(Morpholinosulfonyl)phenyl)-2′-oxo-1′,4′-dihydro-2′H-spiro[pyrrolidine-3,3′-quinoline]-1-carbonitrile], the IC50 lay in the range of 1000 to 10000 nM.
Next, `Cn1cc(-c2ccc3c(c2)NC(=O)C2(CCN(C#N)C2)C3)ccc1=O` (stereo not drawn) [Example 39, 7′-(1-Methyl-6-oxo-1,6-dihydropyridin-3-yl)-2′-oxo-1′,4′-dihydro-2′H-spiro[pyrrolidine-3,3′-quinoline]-1-carbonitrile]: 1000 to 10000 nM; `Cc1nc2cc(-c3ccc4c(c3)NC(=O)C3(CCN(C#N)C3)C4)ccc2s1` (stereo not drawn) [Example 40, 7′-(2-Methylbenzo[d]thiazol-5-yl)-2′-oxo-1′,4′-dihydro-2′H-spiro[pyrrolidine-3,3′-quinoline]-1-carbonitrile]: 100 to 1000 nM.
Next, `N#CN1CCC2(Cc3cc(-c4ccccc4)ccc3NC2=O)C1` (stereo not drawn) [Example 41, 2′-Oxo-6′-phenyl-1′,4′-dehydro-2′H-spiro[pyrrolidine-3,3′-quinoline]-1-carbonitrile]: 100 to 1000 nM; `N#Cc1ccc(-c2ccc3c(c2)CC2(CCN(C#N)C2)C(=O)N3)cc1` (stereo not drawn) [Example 42, 6′-(4-Cyanophenyl)-2′-oxo-1′,4′-dihydro-2′H-spiro[pyrrolidine-3,3′-quinoline]-1-carbonitrile]: 100 to 1000 nM; `N#Cc1cccc(-c2ccc3c(c2)CC2(CCN(C#N)C2)C(=O)N3)c1` (stereo not drawn) [Example 43, 6′-(3-Cyanophenyl)-2′-oxo-1′,4′-dihydro-2′H-spiro[pyrrolidine-3,3′-quinoline]-1-carbonitrile]: 100 to 1000 nM.
As to `N#CN1CCC2(Cc3cc(-c4ccc(F)cc4)ccc3NC2=O)C1` (stereo not drawn) [Example 44, 6′-(4-Fluorophenyl)-2′-oxo-1′,4′-dihydro-2′H-spiro[pyrrolidine-3,3′-quinoline]-1-carbonitrile], the IC50 lay within 100 to 1000 nM.
As to `N#CN1CCC2(Cc3cc(-c4cccc(F)c4)ccc3NC2=O)C1` (stereo not drawn) [Example 45, 6′-(3-Fluorophenyl)-2′-oxo-1′,4′-dihydro-2′H-spiro[pyrrolidine-3,3′-quinoline]-1-carbonitrile], the IC50 was in the range of 100 to 1000 nM.
The figure for `CN(C)C(=O)c1ccc2c(c1)NC(=O)C1(CCN(C#N)C1)C2` (stereo not drawn) [Example 46, 1-Cyano-N,N-dimethyl-2′-oxo-1′,4′-dihydro-2′H-spiro[pyrrolidine-3,3′-quinoline]-7′-carboxamide] is 1000 to 10000 nM.
Next, `CNC(=O)c1ccc2c(c1)NC(=O)C1(CCN(C#N)C1)C2` (stereo not drawn) [Example 47, 1-Cyano-N-methyl-2′-oxo-1′,4′-dihydro-2′H-spiro[pyrrolidine-3,3′-quinoline]-7′-carboxamide]: 1000 to 10000 nM; `N#CN1CCC2(C1)Oc1ncccc1NC2=O` (stereo not drawn) [Example 48, 2-Oxo-1,2-dihydrospiro[pyrido[2,3-b][1,4]oxazine-3,3′-pyrrolidine]-1′-carbonitrile]: 100 to 1000 nM; `N#CN1CCC2(C1)Oc1ncc(-c3ccccc3)cc1NC2=O` (stereo not drawn) [Example 49, 2-Oxo-7-phenyl-1,2-dihydrospiro[pyrido[2,3-b][1,4]oxazine-3,3′-pyrrolidine]-1′-carbonitrile]: 100 to 1000 nM.
For the compound `N#Cc1ccc(-c2cnc3c(c2)NC(=O)C2(CCN(C#N)C2)O3)cc1` (stereo not drawn) [Example 50, 7-(4-Cyanophenyl)-2-oxo-1,2-dihydrospiro[pyrido[2,3-b][1,4]oxazine-3,3′-pyrrolidine]-1′-carbonitrile], the IC50 was 100 to 1000 nM.
Next, `N#Cc1cccc(-c2cnc3c(c2)NC(=O)C2(CCN(C#N)C2)O3)c1` (stereo not drawn) [Example 51, 7-(3-Cyanophenyl)-2-oxo-1,2-dihydrospiro[pyrido[2,3-b][1,4]oxazine-3,3′-pyrrolidine]-1′-carbonitrile]: 100 to 1000 nM.
For `N#CN1CCC2(C1)Oc1ncc(-c3ccc(F)cc3)cc1NC2=O` (stereo not drawn) [Example 52, 7-(4-Fluorophenyl)-2-oxo-1,2-dihydrospiro[pyrido[2,3-b][1,4]oxazine-3,3′-pyrrolidine]-1′-carbonitrile], the IC50 lay in the range of 100 to 1000 nM.
As to `N#CN1CCC2(C1)Oc1ncc(-c3cccc(F)c3)cc1NC2=O` (stereo not drawn) [Example 53, 7-(3-Fluorophenyl)-2-oxo-1,2-dihydrospiro[pyrido[2,3-b][1,4]oxazine-3,3′-pyrrolidine]-1′-carbonitrile], the IC50 was 100 to 1000 nM.
On to `N#CN1CCC2(C1)Oc1nc(-c3ccccc3)ccc1NC2=O` (stereo not drawn) [Example 54, 2-Oxo-6-phenyl-1,2-dihydrospiro[pyrido[2,3-b][1,4]oxazine-3,3′-pyrrolidine]-1′-carbonitrile], for which the IC50 was in the range of 100 to 1000 nM.
The figure for `N#CN1CCC2(C1)Nc1ncccc1NC2=O` (stereo not drawn) [Example 55, 2-Oxo-1,4-dihydro-2H-spiro[pyrido[2,3-b]pyrazine-3,3′-pyrrolidine]-1′-carbonitrile] is 1000 to 10000 nM; for `N#CN1CCC2(C1)Nc1nc(C(F)(F)F)ccc1NC2=O` (stereo not drawn) [Example 56, 2-Oxo-6-(trifluoromethyl)-1,4-dihydro-2H-spiro[pyrido[2,3-b]pyrazine-3,3′-pyrrolidine]-1′-carbonitrile] it is 1000 to 10000 nM.
For the compound `N#CN1CCC2(C1)Nc1ncc(-c3ccccc3)cc1NC2=O` (stereo not drawn) [Example 57, 2-Oxo-7-phenyl-1,4-dihydro-2H-spiro[pyrido[2,3-b]pyrazine-3,3′-pyrrolidine]-1′-carbonitrile], the IC50 was 100 to 1000 nM.
The figure for `N#Cc1ccc(-c2cnc3c(c2)NC(=O)C2(CCN(C#N)C2)N3)cc1` (stereo not drawn) [Example 58, 7-(4-Cyanophenyl)-2-oxo-1,4-dihydro-2H-spiro[pyrido[2,3-b]pyrazine-3,3′-pyrrolidine]-1′-carbonitrile] is 100 to 1000 nM; for `N#CN1CCC2(C1)Nc1ncc(-c3ccc(F)cc3)cc1NC2=O` (stereo not drawn) [Example 59, 7-(4-Fluorophenyl)-2-oxo-1,4-dihydro-2H-spiro[pyrido[2,3-b]pyrazine-3,3′-pyrrolidine]-1′-carbonitrile] it is 100 to 1000 nM; for `N#CN1CCC2(C1)Nc1ncc(-c3cccc(F)c3)cc1NC2=O` (stereo not drawn) [Example 60, 7-(3-Fluorophenyl)-2-oxo-1,4-dihydro-2H-spiro[pyrido[2,3-b]pyrazine-3,3′-pyrrolidine]-1′-carbonitrile] it is 100 to 1000 nM.
The figure for `N#CN1CCC2(C1)Nc1cccnc1NC2=O` (stereo not drawn) [Example 61, 3-Oxo-3,4-dihydro-1H-spiro[pyrido[2,3-b]pyrazine-2,3′-pyrrolidine]-1′-carbonitrile] is 1000 to 10000 nM; for `N#CN1CCC2(CCNC2=O)C1` (stereo not drawn) [Example 62, 6-Oxo-2,7-diazaspiro[4.4]nonane-2-carbonitrile] it is over 10000 nM.
On to `N#CN1CC[C@]2(CCNC2=O)C1` [Example 63, (R)-6-Oxo-2,7-diazaspiro[4.4]nonane-2-carbonitrile], for which the IC50 is 1000 to 10000 nM.
The figure for `N#CN1CC[C@@]2(C1)Oc1ncc(-c3ccccc3)cc1NC2=O` [Example 64, (S)-2-Oxo-7-phenyl-1,2-dihydrospiro[pyrido[2,3-b][1,4]oxazine-3,3′-pyrrolidine]-1′-carbonitrile] is 100 to 1000 nM; for `N#CN1CC[C@@]2(C1)Oc1ncccc1NC2=O` [Example 65, (S)-2-Oxo-1,2-dihydrospiro[pyrido[2,3-b][1,4]oxazine-3,3′-pyrrolidine]-1′-carbonitrile] it is 1000 to 10000 nM.
